In patent publication US20230219962A1, “PYRAZOLO[4,3-d]PYRIMIDINE DERIVATIVES AND METHODS OF USE THEREOF FOR THE TREATMENT OF CELLULAR PROLIFERATIVE DISORDERS” (Merck Sharp & Dohme LLC, priority 2020, published 2023):

What was measured:
hTLR8 = molecular target: T1, hTLR8 (Homo sapiens, UniProt Q9NR97); assay: Human TLR8 Reporter Assay; format: cell-based; details: HEK-Blue hTLR8 cells, 16 hours, normalized to tl8-506 (1 μM) and DMSO
T1 construct: host or cells: HEK-Blue hTLR8 cells (HEK293-derived, own knowledge)
T1 sequence (Q9NR97 27-1041): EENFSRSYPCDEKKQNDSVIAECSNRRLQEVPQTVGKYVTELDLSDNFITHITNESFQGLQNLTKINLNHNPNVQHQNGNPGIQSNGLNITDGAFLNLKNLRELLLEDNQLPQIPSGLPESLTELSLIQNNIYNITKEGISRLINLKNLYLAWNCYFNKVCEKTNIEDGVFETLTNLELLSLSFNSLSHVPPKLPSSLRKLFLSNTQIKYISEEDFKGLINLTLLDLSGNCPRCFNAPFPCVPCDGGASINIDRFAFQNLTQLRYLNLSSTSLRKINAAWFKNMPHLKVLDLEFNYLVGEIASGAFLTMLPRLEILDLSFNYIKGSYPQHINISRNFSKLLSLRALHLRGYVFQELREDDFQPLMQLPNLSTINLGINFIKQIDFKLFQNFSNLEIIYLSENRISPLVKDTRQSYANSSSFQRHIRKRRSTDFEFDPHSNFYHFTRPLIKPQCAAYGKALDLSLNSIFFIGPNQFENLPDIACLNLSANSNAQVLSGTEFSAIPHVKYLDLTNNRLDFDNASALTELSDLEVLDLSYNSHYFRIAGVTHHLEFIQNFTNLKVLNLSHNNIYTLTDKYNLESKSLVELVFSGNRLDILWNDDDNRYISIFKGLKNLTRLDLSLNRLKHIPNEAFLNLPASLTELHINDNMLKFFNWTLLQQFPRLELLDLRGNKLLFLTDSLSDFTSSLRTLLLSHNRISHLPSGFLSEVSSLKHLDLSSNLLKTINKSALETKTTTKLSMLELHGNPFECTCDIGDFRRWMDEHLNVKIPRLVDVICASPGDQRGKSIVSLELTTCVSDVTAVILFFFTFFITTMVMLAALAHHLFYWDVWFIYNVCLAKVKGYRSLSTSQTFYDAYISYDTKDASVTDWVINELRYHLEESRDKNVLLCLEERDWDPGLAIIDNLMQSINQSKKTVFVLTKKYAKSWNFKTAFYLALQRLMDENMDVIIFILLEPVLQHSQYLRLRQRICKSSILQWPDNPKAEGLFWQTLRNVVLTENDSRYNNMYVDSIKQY
Summary of the method: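 HEK-Blue hTLR8 cells (20,000/well) incubated 16 h at 37 °C with 10-point 3-fold compound dilutions in HEK-Blue Detection medium; reporter read as absorbance at 620 nm. Effects normalized between DMSO and tl8-506 (1 μM); EC50 from 4-parameter fit.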

hTLR7 = molecular target: T2, hTLR7 (Homo sapiens, UniProt Q9NYK1); assay: Human TLR7 Reporter Assay; format: cell-based; details: HEK-Blue hTLR7 cells, 16 hours, normalized to CL097 (6 μM) and DMSO
T2 construct: host or cells: HEK-Blue hTLR7 cells (HEK293-derived, own knowledge)
T2 sequence (Q9NYK1 27-1049): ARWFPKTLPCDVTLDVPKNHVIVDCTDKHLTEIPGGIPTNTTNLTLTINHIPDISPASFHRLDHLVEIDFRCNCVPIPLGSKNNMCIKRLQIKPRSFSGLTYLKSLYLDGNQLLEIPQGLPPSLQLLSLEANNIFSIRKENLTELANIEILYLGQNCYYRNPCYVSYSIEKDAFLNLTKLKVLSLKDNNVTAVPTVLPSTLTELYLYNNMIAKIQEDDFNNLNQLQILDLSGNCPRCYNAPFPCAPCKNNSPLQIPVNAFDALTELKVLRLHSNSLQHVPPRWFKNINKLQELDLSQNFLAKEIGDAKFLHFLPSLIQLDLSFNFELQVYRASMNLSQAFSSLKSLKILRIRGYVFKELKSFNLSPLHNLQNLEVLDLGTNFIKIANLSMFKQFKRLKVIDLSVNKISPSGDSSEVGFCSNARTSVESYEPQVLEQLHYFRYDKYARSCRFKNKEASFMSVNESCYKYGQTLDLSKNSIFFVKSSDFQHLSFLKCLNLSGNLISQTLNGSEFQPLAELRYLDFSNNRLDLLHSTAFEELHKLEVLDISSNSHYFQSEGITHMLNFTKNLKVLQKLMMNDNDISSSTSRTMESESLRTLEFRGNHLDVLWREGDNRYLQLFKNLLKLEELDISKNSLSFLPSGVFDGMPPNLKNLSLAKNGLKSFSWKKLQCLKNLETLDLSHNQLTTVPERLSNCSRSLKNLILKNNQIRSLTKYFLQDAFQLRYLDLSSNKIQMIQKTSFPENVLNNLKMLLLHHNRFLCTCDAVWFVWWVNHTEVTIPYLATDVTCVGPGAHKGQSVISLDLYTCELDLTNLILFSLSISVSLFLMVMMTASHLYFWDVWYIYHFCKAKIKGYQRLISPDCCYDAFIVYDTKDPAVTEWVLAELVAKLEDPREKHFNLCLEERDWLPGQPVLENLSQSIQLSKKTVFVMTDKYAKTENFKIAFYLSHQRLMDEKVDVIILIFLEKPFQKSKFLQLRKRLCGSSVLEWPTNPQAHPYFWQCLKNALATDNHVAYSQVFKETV
Summary of the method: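 HEK-Blue hTLR7 reporter cells (20,000/well) incubated 16 h at 37 °C with 10-point 3-fold compound dilutions; SEAP read by absorbance at 620 nm. Effects normalized between CL097 (6 μM) and DMSO controls; EC50 from 4-parameter fit.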

SMILES | EC50 (hTLR8) [nM] | EC50 (hTLR7) [nM]
CCCCNc1nc(N)nc2cn(Cc3cncnc3OC)nc12 [Compound 106] | 1700 | 311
CCCCNc1nc(N)nc2cn(Cc3cc(C)no3)nc12 [Compound 171] | 2520 | 516
CCCCNc1nc(N)nc2cn(Cc3c(OC)ccc(CCN)c3OC)nc12 [Compound 79] | 1810 | 4450
CCCCNc1nc(N)nc2cn(Cc3cc(CN4CCN(C(=O)C5CCC(CN6C(=O)C=CC6=O)CC5)CC4)ccc3OC)nc12 (stereo not drawn) [Compound 71] | 3040 | 267
CCCCNc1nc(N)nc2cn(Cc3[nH]cnc3C)nc12 [Compound 188] | 12400 | 5440
CCCCNc1nc(N)nc2cn(Cc3ccc(CN)cn3)nc12 [Compound 142] | 3220 | 354
CCCCNc1nc(N)nc2cnn(Cc3c(OC)cc(CN4CCNCC4)cc3OC)c12 [Compound 63] | 2410 | 50.8
CCCCNc1nc(N)nc2cn(Cc3ccc(N4CC5(CNC5)C4)cc3OC)nc12 [Compound 116] | 4200 | 988
CCCCNc1nc(N)nc2cn(Cc3c(OC)cc(CN4CCN(C(=O)C5CCC(CN6C(=O)CC(SC[C@H](N)C(=O)O)C6=O)CC5)CC4)cc3OC)nc12 (stereo partly drawn) [Compound 89] | 24600 | 2620
CCCCNc1nc(N)nc2cn(Cc3nc(N4CCNCC4)ccc3OC)nc12 [Compound 159] | 9550 | 1150
COc1cccc(OC)c1Cn1cc2nc(N)nc(NCCC(C)C)c2n1 [Compound 53] | > 29900 | 858
CCCCNc1nc(N)nc2cn(Cc3ccc(N4CC5(CN(CCN6C(=O)C=CC6=O)C5)C4)cc3OC)nc12 [Compound 125] | 18700 | 1740
CCCCNc1nc(N)nc2cn(Cc3ncccn3)nc12 [Compound 122] | 1400 | 288
CCCCNc1nc(N)nc2cn(Cc3ccc(OC)cc3)nc12 [Compound 38] | 1690 | 263
CCCCNc1nc(N)nc2cn(CCCCN)nc12 [Compound 42] | 2980 | > 29900
CCCCNc1nc(N)nc2cn(Cc3ncc(NCCCN)cc3OC)nc12 [Compound 129] | 1360 | 293
CCC[C@@H](CO)Nc1nc(N)nc2cn(Cc3c(OC)cc(CN(C)CCNC(=O)c4cccnc4)cc3OC)nc12 [Compound 218] | 1490 | 6360
COc1cccc(OC)c1Cn1cc2nc(N)nc(NCCCC(C)C)c2n1 [Compound 54] | > 29900 | 496
CCCCNc1nc(N)nc2cn(Cc3ccccn3)nc12 [Compound 97] | 2370 | 265
CCC[C@@H](CO)Nc1nc(N)nc2cn(Cc3c(OC)cc(C(CN)N(C)CCC)cc3OC)nc12 (stereo partly drawn) [Compound 223] | 1800 | 4840
CCCCNc1nc(N)nc2cn(Cc3c(OC)ccc(CN4CCN(C(=O)C5CCC(CN6C(=O)CC(SC[C@H](N)C(=O)O)C6=O)CC5)CC4)c3OC)nc12 (stereo partly drawn) [Compound 90] | 15100 | 2210
CCC[C@@H](CO)Nc1nc(N)nc2cn(Cc3ccc(CNC)cc3OC)nc12 [Compound 155] | 6530 | 2460
CCC[C@H](C)Nc1nc(N)nc2cn(Cc3c(OC)cc(CNC)cc3OC)nc12 [Compound 190] | 2210 | 187
CCCCNc1nc(N)nc2cn(Cc3ccc(CN4CCN(C(=O)CN5C(=O)C=CC5=O)CC4)cc3OC)nc12 [Compound 105] | 6400 | 1790
CCCCNc1nc(N)nc2cn(Cc3c(OC)cc(CN4CCNCC4)cc3OC)nc12 [Compound 62] | 1490 | 840
CCCCNc1nc(N)nc2cn(Cc3ccon3)nc12 [Compound 117] | 2200 | 751
CCC[C@@H](CO)Nc1nc(N)nc2cn(Cc3ccc(N4CCNCC4)cc3OC)nc12 [Compound 150] | 1640 | 1620
CCC[C@@H](CO)Nc1nc(N)nc2cn(Cc3c(OC)cc(C(C)N)cc3OC)nc12 (stereo partly drawn) [Compound 224] | 2250 | 3650

Compounds with a lower EC50 (hTLR8), results first:

EC50 (hTLR8) [nM] | EC50 (hTLR7) [nM] | SMILES
908 | > 1110 | CCCCNc1nc(N)nc2cn(Cc3cc(N4CCN(C(=O)C5CCC(CN6C(=O)C=CC6=O)CC5)CC4)ccc3OC)nc12 (stereo not drawn) [Compound 70]
122 | 185 | CCC[C@@H](CO)Nc1nc(N)nc2cn(Cc3c(OC)cc(CN)cc3OC)nc12 [Compound 152]
1250 | 680 | CCCCNc1nc(N)nc2cn(Cc3ccc(CN4CCNCC4)cc3OC)nc12 [Compound 131]
1080 | 353 | COCCNc1nc(N)nc2cn(Cc3c(OC)cccc3OC)nc12 [Compound 46]
161 | 114 | CCC[C@@H](CO)Nc1nc(N)nc2cn(Cc3ncccc3OC)nc12 [Compound 133]
637 | 628 | CCCCNc1nc(N)nc2cn(Cc3cc(CN)ccc3OC)nc12 [Compound 146]
467 | 329 | CCCCNc1nc(N)nc2cn(Cc3ccc(CC(C)N)cc3OC)nc12 (stereo not drawn) [Compound 176]
725 | 36 | CCCCNc1nc(N)nc2cn(Cc3ccc(C(C)N(C)CCC)cc3OC)nc12 (stereo not drawn) [Compound 241]
1180 | 5180 | CCC[C@@H](CO)Nc1nc(N)nc2cn(Cc3ccc(CN4CC(CN)C4)cc3OC)nc12 [Compound 149]
456 | 32.3 | CCCCNc1nc(N)nc2cn(Cc3ccc(C(C)N(C)CCC)cc3OC)nc12 (stereo not drawn) [Compound 233]
178 | 21.8 | C=CCN(C)Cc1cc(OC)c(Cn2cc3nc(N)nc(NC(C)CCC)c3n2)c(OC)c1 (stereo not drawn) [Compound 158]
48.9 | 619 | CCCNC(C)c1ccc(Cn2cc3nc(N)nc(N[C@H](CO)CCC)c3n2)c(OC)c1 (stereo partly drawn) [Compound 231]
179 | 357 | CCCCNc1nc(N)nc2cn(Cc3ccc(C(C)N)cc3OC)nc12 (stereo not drawn) [Compound 167]
632 | 93 | CCCCNc1nc(N)nc2cn(Cc3ccc(N)cc3OC)nc12 [Compound 166]
455 | 294 | CCCCNc1nc(N)nc2cn(Cc3ccc(CC(C)N)cc3OC)nc12 (stereo not drawn) [Compound 178]
1020 | 119 | CCCCNc1nc(N)nc2cn(Cc3c(OC)cc(N)cc3OC)nc12 [Compound 65]
199 | 493 | CCCCNc1nc(N)nc2cn(Cc3c(OC)cc(CN)cc3OC)nc12 [Compound 66]
